Assay results reported in US11337984B2, “Methods for treating, diagnosing and prognosing a haematological malignancy” (Institut de Recerca Contra La Leucèmia Josep Carreras, priority 2014, dated 2022).

System: HL-60, KG-1, MonoMac-1 and Kasumi-1 AML cell lines
Experiment: Cell viability of AML cell lines by flow cytometry (7-AAD/Hoechst, volumetric count)
Type: cell-based, human
Conditions: subtype-specific 5HTR antagonists, 0.1, 1 and 10 μM, 72 h
Description: FIG. 1. […] 10^6 HL-60, KG-1, MonoMac-1 and Kasumi-1 cells per mL in complete RPMI media were treated with 0.1, 1 and 10 μM Apomorphine for 72 h. […] Cells were stained with 7-aminoactinomycin D (7-AAD, CAS no. 7240-37-1) and Hoechst 33342 (CAS no. 23491-52-3) and analyzed by flow cytometry. […] Cell number was calculated by volumetric count. A. The mean (symbol) for each AML cell line and standard deviation (error bars) from 6 different biological replicates are represented. B. The average corresponding to the four different AML cell lines is represented. *p<0.05.
FIG. 2. […] Cell number was calculated by volumetric count. A. The mean (symbol) for each AML cell line and standard deviation (error bars) from 6 different biological replicates are represented. B. AML cell lines were treated with 10 μM Apomorphine or Methiothepin in the presence or absence of 5-CT or 5-HT. *p<0.05. Apo: apomorphine; Methio: methiothepine.
In order to test the anti-leukaemic effect of 5HTR antagonists, HL-60 (Collins, Gallo et al. Nature. 1977; 270(5635):347-9), MonoMac-1 (Steube, Teepe et al. Leuk Res. 1997; 21(4):327-35), KG-1 (Koeffler and Golde. Science. 1978; 200(4346):1153-4) and Kasumi-1 (Asou, Tashiro et al. Blood. 1991; 77(9):2031-6) AML (Acute Myeloid Leukaemia) cell lines were treated with the broad 5HTR antagonist Apomorphine (CAS no. 314-19-2) at different doses for 72 h. One million cells per mL were seeded in complete RPMI media supplemented with 10% fetal bovine serum in a 96-well plate. The concentration used for the Apomorphine treatment was 0.1, 1 and 10 μM.
The human 5HTR family is composed by 7 subtypes (from 1 to 7) of receptors […]. HL-60, KG-1, MonoMac-1 and Kasumi-1 AML cell lines were incubated with subtype-specific 5HTR antagonists: Apomorphine (type 1, 2 and 5), Methiothepin (type 1 and 2) (CAS no. 74611-28-2), Amperozide (type 2) (CAS no. 75558-90-6), GR113808 (type 4) (CAS no. 144625-51-4). 72 h after treatment, cell viability was determined by flow cytometry. Cells were stained with 7-AAD (CAS no. 7240-37-1) and Hoechst 33342 (CAS no. 23491-52-3). Viability cells were identified by 7-AAD staining exclusion and the presence of Hoechst positive stain. Cell counts were measured by volume. […] In fact, the anti-leukaemic effect was reversed in the presence of a competitive agonist such as the natural ligand 5-HT (CAS no. 153-98-0) or 5-CT (CAS no. 74885-72-6).

SMILES | cell death on AML cell lines
CCNC(=O)N1CCN(CCCC(c2ccc(F)cc2)c2ccc(F)cc2)CC1 [Amperozide, 4-[4,4-bis(4-fluorophenyl)butyl]-N-ethylpiperazine-1-carboxamide] | induced cell death
Cn1cc(C(=O)OCC2CCN(CCNS(C)(=O)=O)CC2)c2ccccc21 [GR113808] | Only Apomorphine, Methiothepin and Amperozide induced cell death
